14 molecules from US9931324B2, “Indolizine derivatives and their use in neurodegenerative diseases” (Merck Patent GmbH, priority 2014, dated 2018) can be followed below.

This experiment deals with T1, P2X7 (Homo sapiens, UniProt Q99572).
T1 sequence (Q99572 1-595): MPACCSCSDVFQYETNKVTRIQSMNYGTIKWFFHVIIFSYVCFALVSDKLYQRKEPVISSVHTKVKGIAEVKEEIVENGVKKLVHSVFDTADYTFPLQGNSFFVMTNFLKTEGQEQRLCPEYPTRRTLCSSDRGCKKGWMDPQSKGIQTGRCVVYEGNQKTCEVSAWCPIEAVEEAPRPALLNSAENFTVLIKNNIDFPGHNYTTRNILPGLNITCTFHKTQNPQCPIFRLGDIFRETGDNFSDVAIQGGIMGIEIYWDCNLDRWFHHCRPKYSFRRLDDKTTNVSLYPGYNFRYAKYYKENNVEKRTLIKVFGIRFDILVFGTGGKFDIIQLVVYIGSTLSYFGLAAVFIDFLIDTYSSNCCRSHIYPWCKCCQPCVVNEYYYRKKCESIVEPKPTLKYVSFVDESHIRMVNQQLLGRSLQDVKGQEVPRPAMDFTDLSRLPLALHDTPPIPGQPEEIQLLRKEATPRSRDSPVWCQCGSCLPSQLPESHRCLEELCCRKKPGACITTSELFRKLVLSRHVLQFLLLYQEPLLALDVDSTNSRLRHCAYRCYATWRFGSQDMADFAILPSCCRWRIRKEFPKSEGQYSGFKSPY
The experiment in a line: Pore permeation assay (YO PRO dye uptake, BzATP-induced). The experiment is classed as cell-based. Also noted: expressed in transfected cells; host or cells: HEK293. The settings on record: HEK293 transfected with human P2X7 receptor, BzATP 10 uM, read-out: hP2X7 IC50. The method, then: Agonist-induced pore formation was determined by measuring cellular uptake of YO PRO fluorescence dye in HEK293 transfected with human P2X7 receptor. A HEK293 cell over expressing human P2X7 was harvested using HQTase reagent to detach the cells from T75 cm flask. The harvested cells are centrifuged @1200 rpm for 5 min at room temperature. The viability of cells was determined by Trypan blue dye and the cells are plated @10,000 cell/well in 50 ul volume in a 384W BD Poly lysine coated plate and incubated overnight at 37 C. After overnight incubation, the culture medium was replaced with 35 ul/well assay buffer (5 mM KCl, 0.1 mM CaCl2, 5 mM Glucose, 10 mM HEPES buffer pH7.4 containing 125 mM NaCl. The serial dilution of compounds was performed using Bravo liquid handling instrument and the compounds were added using Bravo to the cell assay plate starting at 2.5 uM with three dilutions for 10 points. The positive control inhibitor compound was added to column 23. The plate was shaken slowly on a plate shaker for 10 seconds. The cells were incubated with the compound for 20 minutes at room temperature. After the incubation period, YO PRO dye (1 uM) along with BzATP (10 uM) were added to cells at 10 ul/well. The plate was centrifuged at 1000 rpm for 5 seconds and incubated at room temperature for 30 minutes. The uptake of YO PRO dye into the cells was measured using Envision Fluorescence plate reader instrument (Perkin Elmer).

A word on the IC50: it is the concentration needed to halve the response being measured. For the molecule `COCCc1cc(C(=O)NCc2cccc(C(F)(F)F)c2Cl)c2c(Cl)cccn12` [Compound 3, 8-chloro-N-(2-chloro-3-(trifluoromethyl)benzyl)-3-(2-methoxyethyl) indolizine-1-carboxamide], the IC50 is 101 to 500 nM.
With `O=C(NCC1(O)CCCC(C(F)(F)F)C1)c1cc(C2CCC2)n2cccc(Cl)c12` (centres unmarked) [Compound 4, 8-chloro-3-cyclobutyl-N-((1-hydroxy-3-(trifluoromethyl)cyclohexyl)methyl) indolizine-1-carboxamide], the IC50 is above 1000 nM.
With `CC1CC(O)(CNC(=O)c2cc(C3CCC3)n3cccc(Cl)c23)CCC1(F)F` (centres unmarked) [Compound 7, 8-chloro-3-cyclobutyl-N-((4,4-difluoro-1-hydroxy-3-methylcyclohexyl)methyl) indolizine-1-carboxamide] the figure was 101 to 500 nM; with `CCOCCc1cc(C(=O)NCC2CCC(F)(F)CC2)c2c(Cl)cccn12` [Compound 19, 8-Chloro-3-(2-ethoxy-ethyl)-indolizine-1-carboxylic Acid (4,4-difluoro-cyclohexylmethyl)-amide], 101 to 500 nM.
Next, `O=C(NCC1(O)CCCC(F)(F)C1)c1cc(C2CCC2)n2cccc(Cl)c12` (centres unmarked) [Compound 20, 8-chloro-3-cyclobutyl-N-((3,3-difluoro-1-hydroxycyclohexyl)methyl) indolizine-1-carboxamide]: 10 to 100 nM.
On to `COCCc1cc(C(=O)NCC2CCC(F)(F)CC2)c2c(C)cccn12` [Compound 25, 3-(2-Methoxy-ethyl)-8-methyl-indolizine-1-carboxylic Acid (4,4-difluoro-cyclohexylmethyl)-amide], for which the concentration for half-maximal inhibition (IC50) lay in the range of 101 to 500 nM.
Turning to `COCCc1cc(C(=O)NCC2CCC(F)(F)CC2)c2c(C(F)(F)F)cccn12` [Compound 26, 3-(2-Methoxy-ethyl)-8-trifluoromethyl-indolizine-1-carboxylic Acid (4,4-difluorocyclohexylmethyl)-amide], the IC50 was 101 to 500 nM.
On to `C[C@@H]1CCC[C@](O)(CNC(=O)c2cc(C3CCOCC3)n3cccc(Cl)c23)C1` [Compound 27, 8-chloro-N-(((1R,3R)-1-hydroxy-3-methylcyclohexyl)methyl)-3-(tetrahydro-2H-pyran-4-yl)indolizine-1-carboxamide], for which the IC50 is 10 to 100 nM.
Next, `O=C(NCC1(O)CCCC(C(F)(F)F)C1)c1cc(C2CCOCC2)n2cccc(Cl)c12` (centres unmarked) [Compound 28, 8-chloro-N-((1-hydroxy-3-(trifluoromethyl)cyclohexyl)methyl)-3-(tetrahydro-2H-pyran-4-yl)indolizine-1-carboxamide]: 500 to 999 nM; `O=C(NCC1CCC(F)(F)CC1)c1cc(C2CCOCC2)n2cccc(Cl)c12` [Compound 33, 8-chloro-N-((4,4-difluorocyclohexyl)methyl)-3-(tetrahydro-2H-pyran-4-yl)indolizine-1-carboxamide]: 10 to 100 nM.
On to `O=C(NCC1CCC(F)(F)CC1)c1cc(CCF)n2cccc(Cl)c12` [Compound 34, 8-Chloro-3-(2-fluoro-ethyl)-indolizine-1-carboxylic Acid (4,4-difluoro-cyclohexylmethyl)-amide], for which the IC50 fell in the range of 10 to 100 nM.
Take `C[C@@H]1CCC[C@](O)(CNC(=O)c2cc(C3CCOC3)n3cccc(Cl)c23)C1` (stereo partly drawn) [Compound 38, 8-chloro-N-(((1R,3R)-1-hydroxy-3-methylcyclohexyl)methyl)-3-(tetrahydrofuran-3-yl)indolizine-1-carboxamide]: the IC50 lay within 10 to 100 nM.
On to `O=C(NCC1CCC(F)(F)CC1)c1ccn2cccc(Cl)c12` [Compound 42], for which the IC50 lay within 101 to 500 nM.
Regarding `CC1CC(O)(CNC(=O)c2cc(C3CCOC3)n3cccc(Cl)c23)CCC1(F)F` (centres unmarked) [Compound 44, 8-chloro-N-((4,4-difluoro-1-hydroxy-3-methylcyclohexyl)methyl)-3-(tetrahydrofuran-3-yl)indolizine-1-carboxamide], the IC50 was 101 to 500 nM.
